Here are results for eleven compounds from BindingDB's records for patent US11130769 (Prelude Therapeutics, 2021).

Structures are written as SMILES. A value given as a limit tells only on which side of the number the result lay.

Induced myeloid leukemia cell differentiation protein Mcl-1, sequence (Q07820 whole entry): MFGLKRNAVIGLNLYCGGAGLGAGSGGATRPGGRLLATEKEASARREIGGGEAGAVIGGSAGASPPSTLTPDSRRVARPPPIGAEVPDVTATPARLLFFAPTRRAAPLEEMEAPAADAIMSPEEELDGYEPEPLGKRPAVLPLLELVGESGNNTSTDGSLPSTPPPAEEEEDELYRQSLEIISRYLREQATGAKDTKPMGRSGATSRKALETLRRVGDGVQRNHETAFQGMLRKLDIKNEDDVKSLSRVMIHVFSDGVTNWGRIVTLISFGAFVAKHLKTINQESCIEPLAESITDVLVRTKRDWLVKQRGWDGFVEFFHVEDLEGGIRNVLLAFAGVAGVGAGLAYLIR

This experiment concerns the target Induced myeloid leukemia cell differentiation protein Mcl-1 (Homo sapiens, UniProt Q07820). The experiment in a line: Fluorescence Polarization Competition Assay. The method, then: The assay was carried out in black half-area 96-well NBS plate (Corning), containing 15 nM of MCL-1 (BPS Bioscience), 5 nM of FITC-Bim and 3-fold serial diluted test compounds in a total volume of 50 μL of assay buffer (20 mM HEPES, 50 mM NaCl, 0.002% Tween 20, 1 mM TCEP, and 1% DMSO). The reaction plate was incubated for 1 hour at room temperature. The change of anisotropy is measured with an Envision multimode plate reader (PerkinElmer) at emission wavelength 535 nm. Fluorescence polarization was calculated in mP unit and the percentage inhibition was calculated by % inhibition=100×(mPDMSO−mP)/(mPDMSO−mPPC), in which mPDMSO is the DMSO control, and mPpc is the positive control. IC50 values were determined from a 10-point dose response curve by fitting the percent inhibition against compound concentration using the GraphPad Prism software
One may read the Ki as the equilibrium dissociation constant of an inhibitor or competing ligand from its target. High values mean weaker binding, low ones tighter binding. Turning to `CN1C/C=C/[C@H](OC(=O)NC2CC2)[C@@H]2CC[C@H]2CN2C[C@@]3(CCCc4cc(Cl)ccc43)COc3ccc(cc32)S(=O)(=O)NC(=O)C1(C)C`, the Ki is less than 300 nM. The value for `CN(C)CCN(C)C(=O)O[C@H]1/C=C/COC(C)(C)C(=O)NS(=O)(=O)c2ccc3c(c2)N(C[C@@H]2CC[C@H]21)C[C@@]1(CCOc2cc(Cl)ccc21)CO3` was less than 300 nM; that for `CCO[C@@H]1CCN(C(=O)O[C@H]2/C=C/COC(C)(C)C(=O)NS(=O)(=O)c3ccc4c(c3)N(C[C@@H]3CC[C@H]32)C[C@@]2(CCOc3cc(Cl)ccc32)CO4)C1` was less than 300 nM. The value for `COC1CN(C(=O)O[C@H]2/C=C/COC(C)(C)C(=O)NS(=O)(=O)c3ccc4c(c3)N(C[C@@H]3CC[C@H]32)C[C@@]2(CCOc3cc(Cl)ccc32)CO4)C1` was less than 300 nM. For `CN(C)[C@@H]1CCN(C(=O)O[C@H]2/C=C/COC(C)(C)C(=O)NS(=O)(=O)c3ccc4c(c3)N(C[C@@H]3CC[C@H]32)C[C@@]2(CCOc3cc(Cl)ccc32)CO4)C1` the value was less than 300 nM; for `CN(C)C1CN(C(=O)O[C@H]2/C=C/COC(C)(C)C(=O)NS(=O)(=O)c3ccc4c(c3)N(C[C@@H]3CC[C@H]32)C[C@@]2(CCOc3cc(Cl)ccc32)CO4)C1`, less than 300 nM. `CO[C@H]1/C=C/CN2CCC[C@H]2C(=O)NS(=O)(=O)c2ccc3c(c2)N(C[C@@H]2CC[C@H]21)C[C@@]1(CCCc2cc(Cl)ccc21)CO3` [US11130769, Ex. No. 100]: the Ki was less than 100 nM. Turning to `CO[C@@H]1/C=C/CN(C)C(=O)NS(=O)(=O)c2ccc3c(c2)N(C[C@@H]2CC[C@H]21)C[C@@]1(CCCc2cc(Cl)ccc21)CO3` [US11130769, Ex. No. 108], the inhibitory constant (Ki) is less than 100 nM. The value for `CN(C)C(=O)O[C@@H]1/C=C/CN(C)C2(CCC2)C(=O)NS(=O)(=O)c2ccc3c(c2)N(C[C@@H]2CC[C@H]21)C[C@@]1(CCCc2cc(Cl)ccc21)CO3` [US11130769, Ex. No. 139] was less than 100 nM; that for `CN(C)C[C@H]1CCCN1C(=O)O[C@H]1/C=C/COC(C)(C)C(=O)NS(=O)(=O)c2ccc3c(c2)N(C[C@@H]2CC[C@H]21)C[C@@]1(CCCc2cc(Cl)ccc21)CO3` [US11130769, Ex. No. 169] was less than 300 nM; that for `CCOC(=O)N(C)[C@@H]1/C=C/COC(C)(C)C(=O)NS(=O)(=O)c2ccc3c(c2)N(C[C@@H]2CC[C@H]21)C[C@@]1(CCCc2cc(Cl)ccc21)CO3` [US11130769, Ex. No. 252] was less than 100 nM.
